Source: patent US4775673A, “Substituted acylpiperazinoquinazolines and pharmaceutical compositions containing same” (priority 1983, dated 1988)
Counter-ions that a name gives are not always drawn.

Columns and labels:
DOCA-hypertensive rats = assay: blood pressure reduction in nonanesthetized (conscious) DOCA-hypertensive rats; format: in vivo, rat
Procedure: (§1) Of particular interest in this respect are the compounds of formula I above. The hydrochlorides of these compounds afford up to more than 15% aqueous solutions. […] In addition, the compounds of formula I are extremely non-toxic.
(§2) A typical, highly advantageous compound of the invention is the corresponding 2-methyloxypropionyl derivative of formula I, in which n is 0 and both R and R1 are methyl groups. In nonanesthesized (conscious) DOCA-hypertensive rats, this compound in an oral dose of 1 mg/kg elicits a blood pressure reduction of 20%. A dramatic reduction in blood pressure, as much as 40-50%, is observed in the same animals at a dose of 10 mg/kg p.o. Similarly, in non-anesthesized normotensive monkeys (Macaca mulatta), a dose of 3 mg/kg p.o. reduces the blood pressure by 20%. A dose of 25 mg/kg p.o. reduces blood pressure by 35 to 50% for a period of 7 to 9 hours. An intravenous administration of 2.5 mg/kg as a bolus to monkeys reduces blood pressure by 30 to 50% for 1 hour. A similar administration of 10 mg/kg i.v. elicits a blood pressure reduction of 50 to 70% for more then 7 hours. In rabbits anesthesized by pentobarbital, a dose of 25 mg/kg p.o. reduces blood pressure by 20 to 40% for a period of 4 to 5 hours. In non-anesthesized rabbits, a dose as low as 0.1 mg/kg i.v. elicits a transient but significant blood pressure reduction of almost 20%, shortly after administration. […]

[1] = system: normotensive monkeys (Macaca mulatta); assay: blood pressure reduction in non-anesthetized normotensive monkeys; format: in vivo; details: for duration of blood pressure reduction: monkeys
Procedure: as §1
A typical, highly advantageous compound of the invention is the corresponding 2-methyloxypropionyl derivative of formula I, in which n is 0 and both R and R1 are methyl groups. In nonanesthesized (conscious) DOCA-hypertensive rats, this compound in an oral dose of 1 mg/kg elicits a blood pressure reduction of 20%. A dramatic reduction in blood pressure, as much as 40-50%, is observed in the same animals at a dose of 10 mg/kg p.o. Similarly, in non-anesthesized normotensive monkeys (Macaca mulatta), a dose of 3 mg/kg p.o. reduces the blood pressure by 20%. A dose of 25 mg/kg p.o. reduces blood pressure by 35 to 50% for a period of 7 to 9 hours. An intravenous administration of 2.5 mg/kg as a bolus to monkeys reduces blood pressure by 30 to 50% for 1 hour. A similar administration of 10 mg/kg i.v. elicits a blood pressure reduction of 50 to 70% for more then 7 hours. In rabbits anesthesized by pentobarbital, a dose of 25 mg/kg p.o. reduces blood pressure by 20 to 40% for a period of 4 to 5 hours. In non-anesthesized rabbits, a dose as low as 0.1 mg/kg i.v. elicits a transient but significant blood pressure reduction of almost 20%, shortly after administration. A dose of 1 mg/kg i.v. reduces the blood pressure by 20 to 30% for a period of more than 8 hours.

non-anesthesized rabbits = assay: blood pressure reduction in non-anesthetized rabbits; format: in vivo, rabbit
Procedure: as §1, §2

[2] = acute toxicity assay in mice; format: in vivo, mouse; details: mouse, in vivo, iv, mice
Excerpt: as §1

mice = assay: acute toxicity assay in mice; format: in vivo, mouse; details: acute toxicity assays
Excerpt: as §1

[3] = acute toxicity assay in rats; details: rat, in vivo, iv
hypertension = details: prior art; cited from earlier work
[4] = prior art; cited from earlier work
[5] = system: post-synaptic alpha1 -adrenergic receptors; details: prior art; cited from earlier work

| Structure (SMILES) | blood pressure reduction (DOCA-hypertensive rats; 1 mg/kg oral) [%] | reduction in blood pressure (DOCA-hypertensive rats; 10 mg/kg p.o.) | duration of blood pressure reduction ([1]; 2.5 mg/kg i.v. bolus) [h] | blood pressure reduction ([1]; 3 mg/kg p.o., non-anesthetized monkeys) [%] | duration of blood pressure reduction ([1]; 10 mg/kg i.v.) [h] | blood pressure reduction (non-anesthesized rabbits; 0.1 mg/kg i.v., transient, shortly after administration) [%] | duration of blood pressure reduction (non-anesthesized rabbits; 1 mg/kg i.v.) | LD50 [2] [mg/kg] | toxicity (mice) | LD50 [3] [mg/kg] | antihypertensive activity (hypertension) | solubility in water [4] | blocking of post-synaptic alpha1-adrenergic receptors [5] |
| --- | --- | --- | --- | --- | --- | --- | --- | --- | --- | --- | --- | --- | --- |
| COc1cc2nc(N3CCN(C(=O)C(C)OC)CC3)nc(N)c2cc1OC (stereo not shown) [2-methoxypropionyl derivative, 1-(4-amino-6,7-dimethoxy-2-quinazolinyl)-4-(2-methoxyproprionyl)piperazine] | 20 | 40-50% | 1 | 20 | > 7 | ~20 | more than 8 hours | 360 | extremely low in toxicity | 440 |  |  |  |
| COc1cc2nc(N3CCN(C(=O)c4ccco4)CC3)nc(N)c2cc1OC [Prazosin, 1-(4-amino-6,7-dimethyoxy2-quinazolinyl)-4-(2-furoyl) piperazine hydrochloride] |  |  |  |  |  |  |  |  |  |  | highly efficient antihypertensive compound | only slightly soluble in water | blocking the post-synaptic alpha1 -adrenergic receptors |
